# Data: patent US20260284115A1, “THERAPEUTICS AND METHODS” (CAMBRIDGE ENTERPRISE LIMITED, priority 2022, published 2026)
# Tested on: NALCN
# Test: Circulating ZsGreen+ cells (CZCs) in peripheral blood of non-tumour-bearing mice after NALCN blockade
# Type: in vivo
# Conditions: Prom1^CreERT2/Lacz; Rosa26^ZSG; Nalcn^+/+ mice without oncogenic alleles, n=10; FIG. 1a
# Description: Peripheral blood (500 μl-1 ml) was harvested from mice at autopsy into 10 μl of 0.5M EDTA, diluted in PBS and assessed by MACSQuant Analyzer (Miltenyi Biotech Inc.) for ZSgreen expression (525/50 nm [FITC] vs 614/50 nm [PI]). Cells for single cell RNA sequencing and tail vein injection were sorted using a BD FACSAria II Cell Sorter (BD Biosciences) excitation at 525/50 nm (FITC) vs 614/50 nm (PI). Non-tamoxifen induced mouse peripheral blood served as a negative control to set gate parameters. Twenty-five thousand ZSG^+ cells were sorted and injected into recipient NOD SCID gamma mice (Charles River) and aged. For serial dilution assessment of tCZC metastasis initiation, tCZCs were isolated from donor tumour-bearing via FACS based on ZSGreen expression and placed into culture medium. Culture medium: Advanced DMEM/F12 (31330038, ThermoFisher), 2 mM L-glutamine (25030024, ThermoFisher), B27 (12587010, ThermoFisher), N2 (A1370701, ThermoFisher), containing growth factors (50 ng/ml EGF [Peprotech], 100 ng/ml bFGF [100-18c, Peprotech] and 1% FBS (10500064, ThermoFisher). Cells were grown at 37° C. in 5% CO2. Recipient NOD SCID gamma mice (Charles River) were injected with either 10, 100, 1,000 or 10,000 tCZC cells via tail-vein injection and aged. Full autopsy and tissue harvesting were performed as described above.
smiles,measurement,value
[Cl][Gd]([Cl])[Cl] [Gadolinium chloride],numbers of CZCs (circulating ZSG+ cells) in peripheral blood; stem cell-like cell shedding,significantly increased
